“And” between values parts separate entries of the source, which are not always exact repeats. Equal values may be shown once.
What was measured:
[1] = DPPH reduction assay, antioxidant capacity; details: DPPH 100 µM, 30 min, mean ± SEM; for DPPH Scavenging at 100 µM, %: compound 100 µM; for DPPH Scavenging at 1mM, %: compound 1 mM
Experimental: Antioxidant capacity was evaluated by using described procedure slightly modified. Compounds (0.1 and 1 mM, final concentration) were diluted in assay media (EtOH/H2O, 70:30) and mixed with 100 μL of DPPH (SigmaAldrich, D9132, Madrid, Spain) solution (100 μM final concentration) in a clear 96-multiwell plate. Final solution was kept in dark for 30 min, and absorbance of DPPH was measured in a SpectroStar Nano plate-reader (BMG Labtech, Ortenberg, Germany) in duplicate at […]. All experiments included a blank (assay media), control (DPPH 100 μM) and a positive control (ascorbic acid, 100 μM). Data were evaluated as % absorbance (Abs) reduction of control after subtracting blank absorbance. % DPPH reduction = [100 − ((Abssample − Absblank) × 100]/Abscontrol
Initially, we evaluated the free-radical-scavenging capacity of derivatives 7a–d in the DPPH assay, based on the capacity of the tested derivatives to react with the 2,2-diphenyl-1-picrylhydracil radical to generate a non-radical derivate. Hybrid derivatives 7a–d were evaluated at two different concentrations (0.1 and 1 mM), considering the activities of previously reported racemic derivatives. […] Ascorbic acid was used as a positive control, and CGP37157, rac-3a and (rac,R)-3b were included as references. […] Those results are similar to those obtained for racemic mixtures 3a and 3b and a mixture of (S,R)-7b and (R,R)-7d obtained from rac-3 and R-lipoic acid.

[2] = Cytotoxicity in SH-SY5Y cell line (MTT); format: cell-based; details: human; SH-SY5Y, 10, 30 and 100 μM, 24 h, MTT; read-out: CC50
Experimental: SH-SY5Y human neuroblastoma cells were seeded in 96-well clear multi-well plates (6 × 10^4 cells/well). Cells were treated with increasing concentrations of compounds (10, 30 and 100 μM) for 24 h. Thereafter, viability was assessed by the MTT method. Cytotoxic concentration to observe 50% mortality (CC50) values for compounds were interpolated from dose–response curves represented as percentage of cell death vs. concentration of compound, fitted by non-linear regression and data interpolated to value 50.
The tetrazolium ring of MTT can be cleaved by active dehydrogenases to produce a formazan precipitate. At the end of the experiments, MTT (SigmaAldrich, M2003) stock solution was added to each well to achieve a final concentration of 0.5 mg/mL. Cells were incubated for 2 h. Thereafter, culture media was removed, and DMSO was added to each well to dissolve the formazan precipitate. Finally, absorbance was measured in a microplate reader (SPECTROstar nano, BMG Labtech) at 570 nm. Absorbance obtained in basal conditions was considered as 100% cell viability.
In order to evaluate the potential pharmacological profile of new compounds, we first tested the potential neurotoxicity in the neuroblastoma SHSY5Y cell line. Toxicity was evaluated at increasing concentrations (10, 30 and 100 μM), and toxicity was measured as MTT reduction capability. CC50 values were calculated by non-linear regression of curves % survival vs. concentration (Supplementary Materials Figure S2). CGP37157 and previously studied racemic derivatives rac-3a and (rac,R)-3b were included as reference compounds. As previously described, LA is a non-neurotoxic compound at the concentrations texted.

NRF2 = NRF2 induction, luciferase expression in AREc32 cell line; format: cell-based; details: for CD (concentration required to double the specific luciferase activity): AREc32 cells, 0.3, 3, 10 and 30 μM (LA: 0.1–0.6 mM), mean ± SEM
Experimental: AREc32 cell line was kindly shared by Professor Roland Wolf (University of Dundee, UK). AREc32 cells were maintained in DMEM/glutamax/high glucose (Gibco, 61965-06, Madrid, Spain), supplemented with 1% penicillin–streptomycin (10,000 units) (SigmaAldrich, P4333, Madrid, Spain), geneticin (0.8 mg/mL) (Gibco, 11811-031) and 10% FBS (Gibco, 10270106), at 37 °C in a 5% CO2 air atmosphere. Cells were used from passage 4 to 18, and mycoplasma contamination was tested every 4 weeks. AREc32 cells were seeded in 96-well white plates (2 × 10^4 cells/well) for 24 h. Thereafter, cells were treated with each compound (0.3, 3, 10 and 30 µM) in duplicate for 24 h. Non-treated cells were included as basal luciferase expression and tert-butylhydroquinone (TBHQ, 10 μM) as positive control in each plate. Luciferase expression was evaluated by using the Luciferase Assay System (Promega, E1483, Madrid, Spain) by luminescence in an Orion II microplate luminometer (Berthold, Germany). Luciferase activity increase was normalized to basal conditions considered as 1. CD values (concentration required to double the luciferase activity) were calculated from dose–response curves of luciferase fold induction vs. compound concentration, fitted by non-linear regression and data interpolated to value 2.
To evaluate the influence of both stereogenic centers in the NRF2 induction capacity of aza-CGP37157-LA hybrids, we used the AREc32 cell line model by analyzing luciferase expression upon treatment with NRF2 inducers. AREc32 cells were exposed to increasing concentrations of tested compounds 7a–d (0.3, […], 10 and 30 μM) during 24 h; thereafter, luciferase expression was evaluated by luminescent assay to calculate the corresponding CD value (concentration to double luciferase expression). […] TBHQ was included as a positive control, and CGP37157, S- and R-LA, rac-3a and (rac,R)-3b and precursors derivatives (R-6 and S-6) were included for comparative purposes. […] Once R-LA is reduced, it might activate the phase II antioxidant response by acting as pro-oxidant over key Cys residues at KEAP1 to generate the corresponding lipoyl-cystinyl disulphide.

Row | Structure (SMILES) | DPPH Scavenging at 100 µM, % [1] [%] | DPPH Scavenging at 1mM, % [1] | CC50 at 24 h [2] [µM] | luciferase activity increase at 10 μM (NRF2; AREc32 cells, 10 μM, 24 h, vs basal) | luciferase activity increase at 30 μM (NRF2; AREc32 cells, 24 h, vs basal) | CD (concentration required to double the specific luciferase activity) (NRF2; 24 h) | NRF2 induction potency relative to (S,S)-7a (NRF2; ratio of CD values) [fold]
1 | O=C1CN(CCOC(=O)CCCC[C@@H]2CCSS2)[C@H](c2ccccc2Cl)c2cc(Cl)ccc2N1 [(R,S)-7c, 2-((S)-7-Chloro-5-(2-chlorophenyl)-2-oxo-1,2,3,5-tetrahydro-4H-benzo[e][1,4]diazepin-4-yl)ethyl 5-((R)-1,2-dithiolan-3-yl)pentanoate] | 13.6 ± 3.8 | 35.9% and 35.9 ± 1.9% | > 100 | significantly increase luciferase activity | significantly increase luciferase activity | over 30 μM | 
2 | O=C1CN(CCOC(=O)CCCC[C@@H]2CCSS2)[C@@H](c2ccccc2Cl)c2cc(Cl)ccc2N1 [(R,R)-7d, 2-((R)-7-Chloro-5-(2-chlorophenyl)-2-oxo-1,2,3,5-tetrahydro-4H-benzo[e][1,4]diazepin-4-yl)ethyl 5-((R)-1,2-dithiolan-3-yl)pentanoate] | 8.66 ± 3.0 | 23.3 ± 3.5% | > 100 |  | significantly increase luciferase activity | over 30 μM | 
3 | O=C1CN(CCOC(=O)CCCC[C@H]2CCSS2)[C@H](c2ccccc2Cl)c2cc(Cl)ccc2N1 [(S,S)-7a, 2-((S)-7-Chloro-5-(2-chlorophenyl)-2-oxo-1,2,3,5-tetrahydro-4H-benzo[e][1,4]diazepin-4-yl)ethyl 5-((S)-1,2-dithiolan-3-yl)pentanoate] | 10.9 ± 3.5 | 30.3 ± 1.6% | > 100 |  |  | 26.5 ± 1.3 µM | 
4 | O=C1CN(CCOC(=O)CCCC[C@H]2CCSS2)[C@@H](c2ccccc2Cl)c2cc(Cl)ccc2N1 [(S,R)-7b, 2-((R)-7-Chloro-5-(2-chlorophenyl)-2-oxo-1,2,3,5-tetrahydro-4H-benzo[e][1,4]diazepin-4-yl)ethyl 5-((S)-1,2-dithiolan-3-yl)pentanoate] | 8.46 ± 3.8 | 32.0 ± 1.7% | > 100 |  |  | 11.9 ± 1.3 µM | 2.2

— PMC8772772, “Enantioselective Synthesis and Pharmacological Evaluation of Aza-CGP37157–Lipoic Acid Hybrids for the Treatment of Alzheimer’s Disease” (Antioxidants, 2022)
